From publication PMC6158189, “A pharmacological probe identifies cystathionine β-synthase as a new negative regulator for ferroptosis” (Cell Death & Disease, 2018) come the findings set out here.

Structures are written as SMILES.

Holding throughout (assay): cell viability of stable HEK293T lines
What all share (assay type): cell-based

One test deals with 293T-CBS WT cells. How it is done: (§1) Fig. 4 CH004 arrests the cell cycle at the S phase. a CH004 reduces the cell viability of HEK293T and HepG2 cells. HEK293T or HepG2 cells were treated with indicated concentrations of CH004 for 24 h before the cell number was analyzed using the CellTiter96® Aqueous One Solution Cell Proliferation Assay (Promega, Materials and Methods). The means at each concentration of one representative experiment are shown as percentages of DMSO (control, 100%). Means ± SDs (n = 3). b Overexpression of hCBS or knock-down of hCBS counteracts the growth inhibition exerted by CH004 in HEK293T cells. Indicated HEK293T stable cell lines were treated with the CH004 or DMSO for 24 h. Then, the cell viability was quantified with the CellTiter 96® Aqueous One Solution Cell Proliferation Assay under the standard protocol (Promega). The means at each concentration are shown as percentages of their respective DMSO controls (100%). Means ± SDs (n = 3). The efficacy for CBS overexpression and knock-down in HEK293T cells was determined by Western blotting using an anti-CBS antibody (3E1, 1:2000; Abnova). c CH004 induces cell death in HEK293T and HepG2 cells. […] The means of percentages of dead cells (DMSO, 100%) from three independent samples are shown in d. Means ± SDs (n = 3). e, f Pharmacological inhibition or genetic knock-down of hCBS in HEK293T cells arrests the cell cycle at S phase. HEK293T cells were incubated with indicated compounds for 12 h, and the DNA content was quantified with propidium iodide to analyze the cell cycle distribution by flow cytometry (e). The cell cycle distributions for HEK293T-shNT and HEK293T-shCBS cells were accordingly analyzed and are shown in f. One representative diagram is shown for each condition. The mean percentages of various cell phases from three independent samples are shown in the respective right panels. Means ± SDs (n = 3). Statistical analyses were performed by two-way ANOVA with Bonferroni post-tests. *p < 0.05; **p < 0.01; ***p < 0.001.
(§2) HEK293T cells stably expressing hCBS-FL WT or Q222A mutant were generated using lentiviral particles carrying pCDH-hCBS or pCDH empty vector (EV) and pPACK Packaging Plasmid Mix (SBI, Mountain View, CA, USA) according to the manufacturer’s instructions. Similarly, CBS-knock-down HEK293T cells or control cells were obtained using the miRzip lentiviral vector according to the manufacturer’s protocol (SBI, MZIPxxxPA-1). The infected cells were then incubated with 2.5 μg/mL puromycin for two weeks until stable clones were obtained. The target sequence of shRNA-CBS was 5′-GTAGTTCCGCACTGAGTCG-3′, which has been used previously. The scramble control was 5′-TCCGCAGGTATGCACGCGT-3′.
(§3) Figure S12. CH004 inhibits the proliferation of cells via specifically targeting hCBS. (A-B) Dose-dependent curves of CH004 on the cell viability of CBS-stably-expressed HEK293T (A) or CBS-knockdown cells (B). Percentages of cell viability of CH004 obtained in Figure 4b were fitted to the non-linear equation using GraphPad Prism 5 to get the IC50 values of CH004 in respective cell lines (●, 293T-CBS WT cells; ○, 293T-EV; ▲, 293T-shCBS; △, 293T-shNT). Means ± SDs (n=3). […] HEK293T cells stably expressing of the lentiviral shRNA targeting CBS (shCBS) or control shRNA (shNT) were seeded at the density of ~ 3,000 cells per well in 96-well plates and the cell images in the bright field were acquired at indicated times by Image Xpress Micro® XLS (Molecular Devices, Sunnyvale, CA) under 10 × objective lens. Representative images of two independent experiments (n = 6 for each experiment) are shown in C. The cell numbers of images under 4 × objective lens of one representative experiment were calculated by Image Xpress Software and the data is shown in D. Means ± SDs (n=6). […] HepG2 cells were seeded in a 96-well plate at a density of 20000 cells per well and cultured for 24 h before treatment with indicated concentrations of CH004 for another 24 h. […]

Another test has as its system 293T-shCBS cells. On the procedure: as §1, §2, §3
The test system of a further test is 293T-shNT cells. As to conditions: Homo sapiens, HEK-293T, 24 h. On the procedure: as §1, §2, §3
In another test the test system is 293T-EV cells. Conditions: Homo sapiens, HEK-293T, 24 h. How it is done:
as §1, §2, §3

One may read the IC50 as the concentration that inhibits the measured activity by half. High values mean lower potency, low ones higher potency. On to `Cn1nc(Cc2ccccc2)nc2c(=O)n(C)c(=O)nc1-2` [CH004, 3-benzyl-1,6-dimethylpyrimido[5,4-e][1,2,4]triazine-5,7(1H,6H)-dione], for which the “counteraction of inhibitory effect by overexpression of CBS” value in the test on 293T-CBS WT cells (293T-CBS WT vs 293T-EV) was 3 fold. The half-inhibitory concentration (IC50) is 35.5 ± 1.2 µM in the test with 293T-CBS WT cells (Homo sapiens, HEK-293T, 24 h); 43.2 ± 8.3 µM in the test with 293T-shCBS cells (Homo sapiens, HEK-293T, 24 h); 2.6 ± 0.5 µM in the test on 293T-shNT cells; 9.6 ± 1.6 µM in the test with 293T-EV cells. Further, the “increase of IC50 by CBS knock-down” value in the test with 293T-shCBS cells (293T-shCBS vs 293T-shNT) is reported as 15 fold.
